From US20250025427A1, “MIXED AMIDE ESTER CONTAINING LIPIDS FOR USE IN LIPID NANOPARTICLES” (Acuitas Therapeutics, Inc., priority 2023, published 2025)

system: human IgG in mouse serum; assay: Immunoglobulin G (IgG) mRNA in vivo evaluation using lipid nanoparticle compositions; set-up: species or system mice; details: LNP with the cationic lipid, 0.3 mg mRNA/kg, tail vein injection, μg IgG/mL serum 24 hours after administration
Method: A lipid of Formula (I), DSPC, cholesterol and PEG-lipid of Formula (II) are solubilized in ethanol at a molar ratio of 50:10:38.5:1.5 or 47.5:10:40.7:1.8. Lipid nanoparticles (LNP) are prepared at a total lipid to mRNA weight ratio of approximately 10:1 to 40:1. Briefly, the mRNA is diluted to 0.2 mg/mL in 10 to 50 mM citrate buffer, pH 4 to 6 or 10 to 25 mM acetate buffer, pH 4 to 6. Syringe pumps are used to mix the ethanolic lipid solution with the mRNA aqueous solution at a ratio of about 1:5 to 1:3 (vol/vol) with total flow rates above 15 mL/min. The ethanol is then removed, and the external buffer replaced with PBS by dialysis. Finally, the lipid nanoparticles are filtered through a 0.2 µm pore sterile filter.
Studies are performed in 6-8-week-old CD-1/ICR mice (Charles River or Inotiv) according to guidelines established by an institutional animal care committee (ACC) and the Canadian Council on Animal Care (CCAC). Varying doses of mRNA-lipid nanoparticle are systemically administered by tail vein injection and animals euthanized at a specific time point (e.g., 24 hours) post-administration. The whole blood is collected, and the serum subsequentially separated by centrifuging the tubes of the whole blood at 2000×g for 10 minutes at 4° C. and stored at −80° C. until use for analysis.
For immunoglobulin G (IgG) ELISA (Life Diagnostics Human IgG ELISA kit), the serum samples are diluted at 100 to 20,000 folds with 1× diluent solution. 100 μL of diluted serum is dispensed into anti-human IgG coated 96-well plate in duplicate alongside human IgG standards and incubated in a plate shaker at 150 rpm at 25° C. for 45 minutes. The wells are washed 5 times with 1× wash solution using a plate washer (400 μL/well). 100 μL of HRP conjugate is added into each well and incubated in a plate shaker at the same condition above. The wells are washed 5 times again with 1× wash solution using a plate washer (400 μL/well). 100 μL of TMB reagent is added into each well and incubated in a plate shaker at the same condition above. The reaction is stopped by adding 100 μL of Stop solution to each well. The absorbance is read at 450 nm (A450) with a microplate reader. The amount of human IgG in mouse serum is determined by plotting A450 values for the assay standard against human IgG concentration.
Representative compounds of the disclosure shown in Table 2 were formulated using the following molar ratio: 50% cationic lipid/10% distearoylphosphatidylcholine (DSPC)/38.5% Cholesterol/1.5% PEG lipid 2-[2-(ω-methoxy(polyethyleneglycohooo)ethoxy]-N,N-ditetradecylacetamide) or 47.5% cationic lipid/10% DSPC/40.7% Cholesterol/1.8% PEG lipid. Relative activity was determined by measuring the amount of human IgG […]. The activity was compared at a dose of 1.0 or 0.3 mg mRNA/kg and expressed as ng luciferase/g liver measured 4 hours after administration, as described in Example 1 or as μg IgG/mL serum measured 24 hours after administration, as described in Example 2. Compound numbers in Table 2 refer to the compound numbers of Table 1.

SMILES	Serum IgG (μg/mL) @ 0.3 mg/kg [µg/mL]
CCCCCCCCC(CCCCCC)COC(=O)CCCCCCCNC(=O)CCCCCCCCCN(C)CCCCCCCCCC(=O)NCCCCCCCC(=O)OCC(CCCCCC)CCCCCCCC (stereo not drawn) [Compound I-2, Bis(2-Hexyldecyl) 8,8′-((10,10′-(Methylazanediyl)Bis(Decanoyl))Bis(Azanediyl))Dioctanoate]	70.7 ± 11.3
CCCCCCCCC(CCCCCC)COC(=O)CCCCCCCC(=O)N(CCCCCC)CCCCCCN(C)CCCCCCN(CCCCCC)C(=O)CCCCCCCC(=O)OCC(CCCCCC)CCCCCCCC (stereo not drawn) [Compound I-5, Bis(2-Hexyldecyl) 9,9′-(((Methylazanediyl)Bis(Hexane-6,1-Diyl))Bis(Hexylazanediyl))Bis(9-Oxononanoate)]	57.5 ± 8.4
CCCCCCCCC(CCCCCC)COC(=O)CCCCCNC(=O)CCCCCCCN(C)CCCCCCCC(=O)N(CCCCCC)CCCCCC(=O)OCC(CCCCCC)CCCCCCCC (stereo not drawn) [Compound I-11, 2-Hexyldecyl 6-(8-((8-(Hexyl(6-((2-Hexyldecyl)Oxy)-6-Oxohexyl)Amino)-8-Oxooctyl)(Methyl)Amino)Octanamido)Hexanoate]	35.6 ± 5.5
CCCCCCCCC(CCCCCC)COC(=O)CCCCCN(CCCCCC)C(=O)CCCCCCCN(CCCCCCCC(=O)N(CCCCCC)CCCCCC(=O)OCC(CCCCCC)CCCCCCCC)[C@H]1CC[C@@H](O)CC1 (stereo partly drawn) [Compound I-12, Rel-Bis(2-Hexyldecyl) 6,6′-((8,8′-(((1R,4R)-4-Hydroxycyclohexyl)Azanediyl)Bis(Octanoyl))Bis(Hexylazanediyl))Dihexanoate]	29.6 ± 12.7
CCCCCCCCC(CCCCCC)C(=O)OCCCCCCCCC(=O)N(CCCCCC)CCCCCCN(C)CCCCCCN(CCCCCC)C(=O)CCCCCCCCOC(=O)C(CCCCCC)CCCCCCCC (stereo not drawn) [Compound I-13, (((methylazanediyl)bis(hexane-6,1-diyl))bis(hexylazanediyl))bis(9-oxononane-9,1-diyl) bis(2-hexyldecanoate)]	11.3 ± 4.7
CCCCCCCCC(CCCCCC)COC(=O)CCCCCCN(CCCCCC)C(=O)CCCCCCCN(C)CCCCCCCC(=O)N(CCCCCC)CCCCCCC(=O)OCC(CCCCCC)CCCCCCCC (stereo not drawn) [Compound I-14, Bis(2-Hexyldecyl) 7,7′-((8,8′-(Methylazanediyl)Bis(Octanoyl))Bis(Hexylazanediyl))Diheptanoate]	33.4 ± 7.7
CCCCCCCCC(CCCCCC)COC(=O)CCCCN(CCCCCC)C(=O)CCCCCCCN(C)CCCCCCCC(=O)N(CCCCCC)CCCCC(=O)OCC(CCCCCC)CCCCCCCC (stereo not drawn) [Compound I-15, Bis(2-Hexyldecyl) 5,5′-((8,8′-(Methylazanediyl)Bis(Octanoyl))Bis(Hexylazanediyl))Dipentanoate]	48.2 ± 12.7
CCCCCCCCC(CCCCCC)COC(=O)CCCCCCCN(CCCCCC)C(=O)CCCCCCN(C)CCCCCCC(=O)N(CCCCCC)CCCCCCCC(=O)OCC(CCCCCC)CCCCCCCC (stereo not drawn) [Compound I-16, Bis(2-Hexyldecyl) 8,8′-((7,7′-(Methylazanediyl)Bis(Heptanoyl))Bis(Hexylazanediyl))Dioctanoate]	37.2 ± 9.7
CCCCCCCCC(CCCCCC)COC(=O)CCCCCCCCN(CCCCCC)C(=O)CCCCCN(C)CCCCCC(=O)N(CCCCCC)CCCCCCCCC(=O)OCC(CCCCCC)CCCCCCCC (stereo not drawn) [Compound I-17, Bis(2-Hexyldecyl) 9,9′-((6,6′-(Methylazanediyl)Bis(Hexanoyl))Bis(Hexylazanediyl))Dinonanoate]	16.0 ± 2.6
CCCCCCCCC(CCCCCC)COC(=O)CCCCCCCN(CCCCCC)C(=O)CCCCN(C)CCCCC(=O)N(CCCCCC)CCCCCCCC(=O)OCC(CCCCCC)CCCCCCCC (stereo not drawn) [Compound I-18, Bis(2-Hexyldecyl) 8,8′-((5,5′-(Methylazanediyl)Bis(Pentanoyl))Bis(Hexylazanediyl))Dioctanoate]	8.9 ± 4.9
CCCCCCCCC(CCCCCC)COC(=O)CCCCCN(CCCCCC)C(=O)CCCCN(C)CCCCC(=O)N(CCCCCC)CCCCCC(=O)OCC(CCCCCC)CCCCCCCC (stereo not drawn) [Compound I-19, Bis(2-Hexyldecyl) 6,6′-((5,5′-(Methylazanediyl)Bis(Pentanoyl))Bis(Hexylazanediyl))Dihexanoate]	12.3 ± 5.2
CCCCCCCCC(CCCCCC)COC(=O)CCCCCCCCCN(CCCCCC)C(=O)CCCCCN(C)CCCCCC(=O)N(CCCCCC)CCCCCCCCCC(=O)OCC(CCCCCC)CCCCCCCC (stereo not drawn) [Compound I-22, Bis(2-Hexyldecyl) 10,10′-((6,6′-(Methylazanediyl)Bis(Hexanoyl))Bis(Hexylazanediyl))Bis(Decanoate)]	11.9 ± 5.9
CCCCCCCCC(CCCCCC)COC(=O)CCCCCN(CCCCCC)C(=O)CCCCCCN(C)CCCCCCC(=O)N(CCCCCC)CCCCCC(=O)OCC(CCCCCC)CCCCCCCC (stereo not drawn) [Compound I-24, Bis(2-Hexyldecyl) 6,6′-((7,7′-(Methylazanediyl)Bis(Heptanoyl))Bis(Hexylazanediyl))Dihexanoate]	31.9 ± 6.4
CCCCCCCCC(CCCCCC)COC(=O)CCCCCN(CCCCCC)C(=O)CCCCCCCN(C)CCCCCCCC(=O)N(CCCCCC)CCCCCC(=O)OCC(CCCCCC)CCCCCCCC (stereo not drawn) [Compound I-25, Bis(2-Hexyldecyl) 6,6′-((8,8′-(Methylazanediyl)Bis(Octanoyl))Bis(Hexylazanediyl))Dihexanoate]	55.3 ± 24.8
CCCCCCCCC(CCCCCC)COC(=O)CCCCCN(CCCCCC)C(=O)CCCCCN(C)CCCCCC(=O)N(CCCCCC)CCCCCC(=O)OCC(CCCCCC)CCCCCCCC (stereo not drawn) [Compound I-27, Bis(2-Hexyldecyl) 6,6′-((6,6′-(Methylazanediyl)Bis(Hexanoyl))Bis(Hexylazanediyl))Dihexanoate]	15.6 ± 4.7
CCCCCCCCC(CCCCCC)COC(=O)CCCCCN(C(=O)CCCCCCCN(C)CCCCCCCC(=O)N(CCCCCC(=O)OCC(CCCCCC)CCCCCCCC)C(C)C)C(C)C (stereo not drawn) [Compound I-28, Bis(2-Hexyldecyl) 6,6′-((8,8′-(Methylazanediyl)Bis(Octanoyl))Bis(Isopropylazanediyl))Dihexanoate]	13.2 ± 4.3
CCCCCCCCC(CCCCCC)COC(=O)CCN(CCCCCC)C(=O)CCCCCCCN(C)CCCCCCCC(=O)N(CCCCCC)CCC(=O)OCC(CCCCCC)CCCCCCCC (stereo not drawn) [Compound I-32, Bis(2-Hexyldecyl) 3,3′-((8,8′-(Methylazanediyl)Bis(Octanoyl))Bis(Hexylazanediyl))Dipropionate]	70.8 ± 12.3
CCCCCCC(CCCC)COC(=O)CCCCCN(CCCCCC)C(=O)CCCCCCCN(C)CCCCCCCC(=O)N(CCCCCC)CCCCCC(=O)OCC(CCCC)CCCCCC (stereo not drawn) [Compound I-33, Bis(2-Butyloctyl) 6,6′-((8,8′-(Methylazanediyl)Bis(Octanoyl))Bis(Hexylazanediyl))Dihexanoate]	75.8 ± 36.0
CCCCCCCCC(CCCCCC)C(=O)OCCCCCCN(CCCCCC)C(=O)CCCCCCCN(CCCCCCCC(=O)N(CCCCCC)CCCCCCOC(=O)C(CCCCCC)CCCCCCCC)CCN(C)C (stereo not drawn) [Compound I-34, ((8,8′-((2-(Dimethylamino)Ethyl)Azanediyl)Bis(Octanoyl))Bis(Hexylazanediyl))Bis(Hexane-6,1-Diyl) Bis(2-Hexyldecanoate)]	5.0 ± 0.8
CCCCCCCCC(CCCCCC)COC(=O)CCCCCN(CCCCCC)C(=O)CCCCCN(CCCCCC(=O)N(CCCCCC)CCCCCC(=O)OCC(CCCCCC)CCCCCCCC)CCCOC (stereo not drawn) [Compound I-37, Bis(2-Hexyldecyl) 6,6′-((6,6′-((3-Methoxypropyl)Azanediyl)Bis(Hexanoyl))Bis(Hexylazanediyl))Dihexanoate]	63.0 ± 22.9

same assay, conditions: LNP with the cationic lipid, 1.0 mg mRNA/kg, tail vein injection, μg IgG/mL serum 24 hours after administration

SMILES	Serum IgG (μg/mL) @ 1.0 mg/kg [µg/mL]
CCCCCCCCC(CCCCCC)COC(=O)CCCCCCCNC(=O)CCCCCCCCCN(C)CCCCCCCCCC(=O)NCCCCCCCC(=O)OCC(CCCCCC)CCCCCCCC (stereo not drawn) [Compound I-2, Bis(2-Hexyldecyl) 8,8′-((10,10′-(Methylazanediyl)Bis(Decanoyl))Bis(Azanediyl))Dioctanoate]	369.6 ± 59.4
CCCCCCCCC(CCCCCC)COC(=O)CCCCN(CCCCCC)C(=O)CCCCCCCN(C)CCCCCCCC(=O)N(CCCCCC)CCCCC(=O)OCC(CCCCCC)CCCCCCCC (stereo not drawn) [Compound I-15, Bis(2-Hexyldecyl) 5,5′-((8,8′-(Methylazanediyl)Bis(Octanoyl))Bis(Hexylazanediyl))Dipentanoate]	135.0 ± 37.2
CCCCCCCCC(CCCCCC)COC(=O)CCCCCCCN(CCCCCC)C(=O)CCCCN(C)CCCCC(=O)N(CCCCCC)CCCCCCCC(=O)OCC(CCCCCC)CCCCCCCC (stereo not drawn) [Compound I-18, Bis(2-Hexyldecyl) 8,8′-((5,5′-(Methylazanediyl)Bis(Pentanoyl))Bis(Hexylazanediyl))Dioctanoate]	32.4 ± 4.6
CCCCCCCCC(CCCCCC)COC(=O)CCCCCN(CCCCCC)C(=O)CCCCCCCN(C)CCCCCCCC(=O)N(CCCCCC)CCCCCC(=O)OCC(CCCCCC)CCCCCCCC (stereo not drawn) [Compound I-25, Bis(2-Hexyldecyl) 6,6′-((8,8′-(Methylazanediyl)Bis(Octanoyl))Bis(Hexylazanediyl))Dihexanoate]	192.4 ± 106.8
